Measurements: patent publication US20220395522A1, “Methods of Use of Glucosamine for Increasing Nitrogen Retention” (TSI Bioproducts (Xuzhou) Co., Ltd., priority 2021, published 2022)

Columns and labels:
Assay in all cases: Fecal microbiota analysis, differential abundance of taxa (MaAsLin)
Format in all cases: in vivo, human
Peptococcaceae = conditions: after GLU intake compared to baseline (GLU (Pre)), p=0.021
Protocol: (§1) To determine significant differences between bacterial alpha diversity metrics (the measure of microbiome diversity within a single sample), a paired t-test was used between alpha diversity values of different sample groups (p<0.05). Significant differences in beta diversity (the measure of similarity or dissimilarity of multiple samples) between groups was determined using the qiime diversity beta-group-significance command in QIIME2 as well, which performs pairwise Permutational Multivariate Analysis of Variance (PERMANOVA) tests on beta diversity distance matrices (p<0.05). Differential abundance of taxa between sample groups were evaluated using Multivariate Analysis by Linear Models (MaAsLin) in R version 4.0.2 using the Maaslin2 command in the Maaslin2 R library on rarified taxonomy data generated by QIIME2 (p<0.05). […]
(§2) A fecal microbiota analysis was further conducted. […] The Qubit Fluorometer (Thermo Fisher Scientific, San Francisco, Calif.) was used to quantify PCR product concentrations prior to combining the PCR products in equal quantities for purification with the Wizard SV Gel and PCR Cleanup kit (Promega, Madison, Wis.). […] Library purity and concentration was measured on a 2100 Bioanalyzer System (Agilent Technologies, Santa Clara, Calif.). […]
(§3) Ion Torrent BAM files of raw DNA sequencing data were converted to the FASTQ format using BEDTools and then analyzed using Quantitative Insights into Microbiology (QIIME2) version 2019.10. Reads shorter than 200 bp in length were removed. […] Multiple sequence Alignment using Fast Fourier Transform (MAFFT) was used for read alignment, while gapped and unconserved alignments were filtered using the alignment mask plugin. […] Sequences of mitochondria and chloroplast origin were filtered from downstream analysis, leaving a total of 1,391,259 total high-quality reads associated with taxonomic annotations. Samples were rarified to 7,874 reads for alpha and beta diversity analysis. […]

Pseudomonadaceae = conditions: after GLU intake compared to baseline (GLU (Pre)), p=0.014
Protocol: as §1, §2, §3

Bacillaceae = conditions: after GLU intake compared to baseline (GLU (Pre)), p=0.038
Protocol: as §1, §2, §3

Cl.N[C@H]1C(O)O[C@H](CO)[C@@H](O)[C@@H]1O (stereo partly drawn) [GLU, glucosamine hydrochloride]
Proportion of Peptococcaceae, Log2 FC (Peptococcaceae): −4.52
Proportion of Pseudomonadaceae, Log2 FC (Pseudomonadaceae): −1.05
Proportion of Bacillaceae (Bacillaceae): not detected
